# Legend:
# [1] = system: HIV-1 L100I mutant strain; assay: Anti-HIV assay against L100I mutant strain in MT-4 cells; format: cell-based; conditions: Human immunodeficiency virus 1, MT4, read-out: EC50 L100I
# Description: (§2) Evaluation of the antiviral activity of the compounds against HIV in MT-4 cells was performed using the MTT assay as previously described [24, 25]. […] Prior to use in our assays, every freshly grown virus stock was the subject of a genotypic analysis. In addition to the genotypic analysis, every stock was subject to a phenotypic analysis using a panel of relevant reference compounds in MT-4 cells. […] Stock solutions (10× final concentration) of test compounds were added in 25 μL volumes to two series of triplicate wells so as to allow simultaneous evaluation of their effects on mock- and HIV-infected cells at the beginning of each experiment. Serial 5-fold dilutions of test compounds were made directly in flat-bottomed 96-well microtiter trays using a Biomek 3000 robot (Beckman instruments, Fullerton, CA). Untreated HIV- and mock-infected cell samples were included as controls. HIV stock (50 μL) at 100–300 CCID50 (50% cell culture infectious doses) and culture medium (final 200 μL volume per well) were added to either the infected or mock-infected wells of the microtiter tray. Mock-infected cells were used to evaluate the effects of test compounds on uninfected cells in order to assess the cytotoxicity of the test compounds. Exponentially growing MT-4 cells were centrifuged for 5 min at 220× g and the supernatant was discarded. The MT-4 cells were resuspended at 6 × 10^5 cells/mL and 50 μL volumes were transferred to the microtiter tray wells. Five days after infection, the viability of mock- and HIV-infected cells was examined spectrophotometrically using the MTT assay. The MTT assay is based on the reduction of yellow colored 3-(4,5-dimethylthiazol-2-yl)-2,5-diphenyltetrazolium bromide (MTT) (Acros Organics, Geel, Belgium) by mitochondrial dehydrogenase activity in metabolically active cells to a blue-purple formazan that can be measured spectrophotometrically. The absorbances were read in an eight-channel computer-controlled photometer (Infinite M1000, Tecan, Männedorf, Switzerland) at two wavelengths (540 and 690 nm). All data were calculated using the median absorbance value of three wells.
# [2] = system: HIV-1 K103N mutant strain; assay: Anti-HIV assay against K103N mutant strain in MT-4 cells; format: cell-based; conditions: Human immunodeficiency virus 1, MT4, read-out: EC50 K103N
# Description: as §2
# [3] = system: HIV-1 K103N + Y181C mutant strain; assay: Anti-HIV assay against double mutant K103N + Y181C in MT-4 cells; format: cell-based; conditions: Human immunodeficiency virus 1, MT4, read-out: EC50 K103N + Y181C
# Description: as §2
# [4] = system: HIV-1 Y181C mutant strain; assay: Anti-HIV assay against Y181C mutant strain in MT-4 cells; format: cell-based; conditions: Human immunodeficiency virus 1, MT4, read-out: EC50 Y181C
# Description: as §2
# [5] = system: HIV-1 E138K mutant strain; assay: Anti-HIV assay against E138K mutant strain in MT-4 cells; format: cell-based; conditions: Human immunodeficiency virus 1, MT4, read-out: EC50 E138K
# Description: as §2
# HIV-1 IIIB = assay: Anti-HIV assay against wild-type HIV-1 (IIIB) in MT-4 cells, MTT method; format: cell-based; conditions: for SI (selectivity index, ratio CC50/EC50 (WT)): CC50/EC50 WT HIV-1 IIIB, MT-4 cells; for EC50: Human immunodeficiency virus 1, IIIB, MT4, read-out: EC50 HIV-1 IIIB
# Description: (§1) Untreated HIV- and mock-infected cell samples were included as controls. […] Five days after infection, the viability of mock- and HIV-infected cells was examined spectrophotometrically using the MTT assay. […] All data were calculated using the median absorbance value of three wells.
# [6] = system: HIV-1 F227L + V106A mutant strain; assay: Anti-HIV assay against double mutant F227L + V106A in MT-4 cells; format: cell-based; conditions: Human immunodeficiency virus 1, MT4, read-out: EC50 F227L + V106A
# Description: as §2
# MT-4 cells = assay: Cytotoxicity in mock-infected MT-4 cells, MTT method; conditions: MT-4 cells; relative to RPV CC50
# Description: as §1
# [7] = as above; conditions: human, mock-infected (uninfected) MT-4 cells
# Description: as §1
# WT HIV-1 RT = biological target: T1, WT HIV-1 RT (Human immunodeficiency virus type 1 group M subtype B, UniProt P03366); assay: Reverse transcriptase assay (EnzCheck kit, PicoGreen); format: biochemical; conditions: recombinant wild type p66/p51 HIV-1 RT
# T1 construct: Recombinant wild type p66/p51 HIV-1 RT; made in house
# Description: The RT assay was performed with the EnzCheck Reverse Transcriptase Assay kit (Molecular Probes, Invitrogen), as described by the Manufacturer. The assay is based on the dsDNA quantitation reagent PicoGreen. […] This condition is met in the assay. A poly(rA) template of approximately 350 bases long and an oligo (dT)16 primer are annealed in a molar ratio of 1:1.2 (60 min at room temperature). Then, 52 ng of the RNA/DNA is brought into each well of a 96-well plate in a volume of 20 μL polymerization buffer (60 mM Tris-HCl, 60 mM KCl, 8 mM MgCl2, 13 mM DTT, 100 μM dTTP, pH 8.1). Then, 5 μL of RT enzyme solution, diluted to a suitable concentration in enzyme dilution buffer (50 mM Tris-HCl, 20% glycerol, 2 mM DTT, pH 7.6), is added. The reactions are incubated at 25 °C for 40 min and then stopped by the addition of EDTA (15 mM fc). Heteroduplexes are then detected by addition of PicoGreen. Signals are read using an excitation wavelength of 490 nm and emission detection at 523 nm using a spectrofluorometer (Safire 2, Tecan). To test the activity of compounds against RT, 1 μL of compound in DMSO was added to each well before the addition of RT enzyme solution. Control wells without compound contained the same amount of DMSO. Results are expressed as relative fluorescence, i.e., the fluorescence signal of the reaction mix with compound divided by the signal of the same reaction mix without compound.
Compound,EC50 [1] [nM],EC50 [2] [nM],EC50 [3] [nM],melting point [°C],EC50 [4] [nM],EC50 [5] [nM],"SI (selectivity index, ratio CC50/EC50 (WT)) (HIV-1 IIIB)",EC50 (HIV-1 IIIB) [nM],"fold higher activity than the 3-substituted analogue (A4) (HIV-1 IIIB; WT HIV-1 IIIB, relative to A4) [fold]",EC50 [6] [nM],CC50 fold higher than that of RPV (MT-4 cells),CC50 at 5 days [7] [nM],IC50 (WT HIV-1 RT) [nM]
"COc1cc(C#N)ccc1C(C#N)c1ccnc(Nc2ccc(C#N)cc2)n1 (centres unmarked) [Compound A5, 4-(4-(cyano-(2-methoxy-4-cyanophenyl)methyl)-pyrimidin-2-ylamino)benzonitrile]",4720 ± 790,680 ± 160,> 25800,189.4 to 190.1,1250 ± 580,1630 ± 320,434,59 ± 11,200,≥ 12400,about 5 fold,25800 ± 8700,
"Cc1cnc(Nc2ccc(C#N)cc2)nc1C(C#N)c1ccc(C#N)cc1Cl (centres unmarked) [Compound B3, 4-(4-(cyano-(2-chloro-4-cyanophenyl)methyl)-5-methylpyrimidin-2-ylamino)benzonitrile]",820 ± 150,80 ± 20,> 9560,213.6 to 214.2,260 ± 20,140 ± 30,920,10 ± 10,,4040 ± 700,,9600 ± 2700,50 ± 30
"Cc1cnc(Nc2ccc(C#N)cc2)nc1C(C#N)c1ccc(C#N)cc1 (centres unmarked) [Compound B1, 4-(4-(cyano-(4-cyanophenyl)methyl)-5-methylpyrimidin-2-ylamino)benzonitrile]",8030 ± 4430,3950 ± 220,> 109000,243.1 to 243.7,7050 ± 960,4920 ± 300,356,300 ± 110,,≥ 59000,,109000 ± 80000,1460 ± 90
"Cc1cc(C#N)c(Br)cc1C(C#N)c1nc(Nc2ccc(C#N)cc2)ncc1C (centres unmarked) [Compound B6, 4-(4-(cyano-(2-methyl-5-bromo-4-cyanophenyl)methyl)-5-methylpyrimidin-2-ylamino)benzonitrile]",860 ± 190,60 ± 10,> 9790,232.3 to 233.9,330 ± 100,170 ± 60,1215,8 ± 4,,1520 ± 150,,9800 ± 3500,60 ± 20
"Cc1cnc(Nc2ccc(C#N)cc2)nc1C(C#N)c1ccc(C#N)cc1Br (centres unmarked) [Compound B4, 4-(4-(cyano-(2-bromo-4-cyanophenyl)methyl)-5-methylpyrimidin-2-ylamino)benzonitrile]",510 ± 190,80 ± 30,> 6620,,160 ± 170,110 ± 40,,6 ± 1,,2350 ± 180,,6600 ± 1300,60 ± 30
"Cc1cnc(Nc2ccc(C#N)cc2)nc1C(C#N)c1ccc(C#N)c(Cl)c1C (centres unmarked) [Compound B5, 4-(4-(cyano-(2-methyl-3-chloro-4-cyanophenyl)methyl)-5-methylpyrimidin-2-ylamino)benzonitrile]",1820 ± 400,390 ± 70,> 8580,205.4 to 206.5,1020 ± 200,600 ± 100,370,20 ± 8,,1660 ± 270,,8600 ± 2200,70 ± 20

# Source: article PMC7180830, “Scaffold Hopping in Discovery of HIV-1 Non-Nucleoside Reverse Transcriptase Inhibitors: From CH(CN)-DABOs to CH(CN)-DAPYs” (Molecules, 2020)
